Reference: patent US7655216B2, “Vaccine for activating helper function of CD8+ Tcells” (University of Pittsburgh - Of the Commonwealth of Higher …, priority 2007, dated 2010)
Entries after “also recorded” stand apart in the source; their conditions may differ. The star is where a group is joined. Cbz = O=C(OCc1ccccc1)*; CH2F = FC*

Experiments:
MC38 adenocarcinoma = tested on: MC38 adenocarcinoma; design: species or system C57BL/6 mice; conditions: mouse, in vivo, sc
[1] = tested on: immature DCs co-cultured with effector-type CD8+ T cells; assay type: cell-based, human
PI-9 in DCs = assay: Intracellular PI-9 expression in DCs (flow cytometry); assay type: cell-based, human
Procedure: Flow cytometry. Cell surface phenotype was analyzed by flow cytometry using Beckman Coulter XL. The FITC and PE-labeled isotype controls (mouse IgG1 and IgG2a), anti-human CD86, anti-human perforin were obtained from BD Pharmingen. CD83 monoclonal antibody was purchased from Immunotech and PE-labeled Granzyme B antibody was obtained from Cell Sciences. Goat anti-mouse IgG-FITC conjugated was obtained from Caltag Laboratories. For detection of intracellular PI-9, PI-9 specific mouse monoclonal IgG1 antibody was used as described (Bladergroen et al., J. Immunol. 166:3218-3225 (2001)). Briefly, for intracellular staining of PI-9, DCs were washed and then blocked with human Ig for 10 minutes at room temperature. Subsequently, cells were permeabilized with 300 μl of Permiflow (Invirion, Frankfort, Mich.) for 60 minutes at room temperature and then washed. The cells were stained with unconjugated anti human PI-9 antibody for 20 minutes at room temperature followed by staining with FITC conjugated goat anti-mouse IgG antibody. Granzyme B and perforin staining were performed according to manufacturer's protocol, using Permiflow as permeabilization reagent. […]
Intracellular expression of PI-9 (open profiles) in DCs has been analyzed by flow cytometry before and after (15 and 120 minutes) the exposure to recombinant TNFα (50 ng/ml).

[2] = tested on: SEB-loaded DCs co-cultured with memory-type CD8+ T cells; assay type: cell-based, human
SEB loaded DCs = assay type: cell-based, human

SIINFEKL [OVA257-264]
induction of MC38-specific CTL activity (killing MC38) (MC38 adenocarcinoma): more effective in killing MC38 than a DC vaccine loaded only with tumor antigen

Cbz-IETD-CH2F
CTL-induced DC death (survival of DCs) [1]: abrogated the CTL-induced DC death

KAVYNFATC [LCMVgp33-41]
induction of MC38-specific CTL activity (killing MC38) (MC38 adenocarcinoma): more effective in killing MC38 than a DC vaccine loaded only with tumor antigen

Infliximab
memory-type CD8+ T cell-induced induction of PI-9 in DCs (PI-9 in DCs; 10 hour time point): blocks | DC survival in co-culture with memory-type CD8+ T cells [2]: equally effective in converting the memory T cell-induced DC activation into memory T cell-induced DC death; also recorded: reduces DC survival

IETD-CHO
CTL-induced DC death (survival of DCs) [1]: abrogated the CTL-induced DC death

Concanamycin A
DC killing by effector-type CD8+ T cells [1]: completely eliminated; also recorded: abrogated their DC-killing ability | DC activation / phenotypic maturation (CD86, CD83) (SEB loaded DCs): enhance DC activation

TNFα
induction of PI-9 in DCs (PI-9 in DCs; recombinant TNFα 50 ng/ml, 15 and 120 minutes): Rapid induction of PI-9 | resistance of immature DCs to CTL killing [1]: acquired resistance to CTL killing

O=C(O)CN(CCOCCOCCN(CC(=O)O)CC(=O)O)CC(=O)O [EGTA]
DC killing by effector-type CD8+ T cells [1]: completely eliminated

B1: soluble TNF receptor I: recombinant human soluble TNF-RI (R&D Systems) (protein, UniProt P19438 30-211, looked up)
extracellular domain: LVPHLGDREKRDSVCPQGKYIHPQNNSICCTKCHKGTYLYNDCPGPGQDTDCRECESGSFTASENHLRHCLSCSKCRKEMGQVEISSCTVDRDTVCGCRKNQYRHYWSENLFQCFNCSLCLNGTVHLSCQEKQNTVCTCHAGFFLRENECVSCSNCKKSLECTKLCLPQIENVKGTEDSGTT
modifications: extracellular domain
DC survival in co-culture with memory-type CD8+ T cells [2]: equally effective in converting the memory T cell-induced DC activation into memory T cell-induced DC death
